“Also recorded” adds a separate entry of the source. Marks after values point to notes of the source that are not given here. Square brackets hold non-standard residues; d marks the D form. Ends that are not written are not given here. pS = N[C@@H](COP(=O)(O)O)C(=O)O
Columns and labels:
[1] = Enamel demineralization protection by constructed peptides: calcium and phosphate released from enamel (Example 1); parameters: species or system human; conditions: for Mean Ca Conc. (calcium released from human enamel) / Mean PO4 Conc. (phosphate released from human enamel): 1 mg/mL peptide 2 hours 37° C., then demineralization solution pH 4.5, 37° C., 12 days, mean ± SD; for Enamel demineralization protection / mineral loss (in words): versus distilled water control and other groups, ANOVA, Tukey
Description: Enamel sample preparation was done as previously described (Siqueira et. al. 2010, J Dent Res. 2010; 89: 626-630, the relevant contents of which are incorporated herein by reference). Briefly, human permanent first molars without defects were cleaned, rinsed, and sectioned. After having the roots removed, the crowns were sliced sagittally into 4 sections (each with a 300 μm thickness) using a diamond saw, followed by grinding to a thickness of 150 μm using sandpaper. Each specimen was coated with a layer of light-cured dental adhesive (3M ESPE Scotchbond™ Universal) and nail varnish, excluding an untouched 2 mm window on the natural surface enamel. Each specimen was submerged in 1 mg/mL construct peptide solution or distilled water (control group) and incubated for 2 hours at 37° C. After this period, the samples were then submerged in 1 mL of demineralization solution (0.05M acetic acid; 2.2 mM CaCl2; 2.2 mM NaH2PO4; pH 4.5) at 37° C. for 12 days. Afterward, they were rinsed thoroughly with distilled water and dried with filter paper to remove any remaining acid residue. The remaining 1 mL of acidic solution was used to assess the calcium and phosphate concentration released from enamel during the demineralization process. The calcium concentration of the solution was assessed using a quantitative colorimetric calcium determination assay (QuantiChrom™ Calcium Assay Kit, Bioassay Systems, Hayward, Calif., USA) with a UV-visible spectrophotometer to determine the optical density at a wavelength of 612 nm. The phosphate concentration was assessed using a colorimetric assay (PiColorLock™ Gold Detection System, Innova Biosciences, Cambridge, U.K.) and UV-visible spectrophotometer, to determine the optical density at a wavelength of 635 nm. All samples were analyzed in duplicate. Statistical analysis was performed with ANOVA and the Tukey Range Test.

[2] = Chitosan encapsulation rate, ELISA of remaining unencapsulated protein or peptide; type: physicochemical; conditions: encapsulation in chitosan nanoparticles
Description: Based on the optimized parameters for construction of chitosan micro- and nanoparticles, AEP was mixed directly with the chitosan solution. Chitosan micro- and nanoparticles were constructed, as described above, and the particles were characterized through Zeta sizing and SEM. Reverse Phase-High Performance Liquid Chromatography (RP-HPLC) and/or enzyme-linked immunosorbent assay (ELISA) was used to determine the degree of encapsulation by measuring the amount of free peptides, before and after the encapsulation procedure. Chitosan encapsulation of histatin 5, DR-9, RR-14 and bovine serum albumin was carried out to determine the chitosan encapsulation rate. ELISA assay assessed the remaining unencapsulated protein or peptide.

[3] = Enamel demineralization with chitosan nanoparticle coatings: calcium and phosphate released from enamel (Table 3); parameters: species or system human; conditions: for demineralization / acid protection (in words): coated enamel vs not coated control, pH 4.5, 12 days
Protocol: Demineralization studies are conducted using thin sections of human enamel. Enamel minerals were analyzed using microradiography. To determine the influence of selected chitosan encapsulated salivary proteins on enamel demineralization, resin-coated enamel sections were first exposed to solutions containing chitosan encapsulated salivary proteins at a concentration of 1.0 mg/ml for 2 h at 37° C. To mimic the acidic environment of dental caries, chitosan encapsulated salivary proteins and control sections were placed into individual tubes with 3 ml of a demineralization solution containing 2.2 mM CaCl2, 2.2 mM NaH2PO4, 5 mM acetic acid, a pH 4.5. The sample was incubated at 37° C. with gentle agitation for a period of 12 days. All solutions contained 3 mM sodium azide as a bacteriostatic agent. Immediately after the demineralization period, the specimens were extensively washed with distilled water and dried with filter paper. Mineral loss was evaluated by comparing the microradiography taken before and after exposure to the acidic conditions. Enamel pieces were prepared as described and coated with chitosan nanoparticles, DR-9 encapsulated in chitosan nanoparticles, DR-9, and 0.05% NaF (gold standard group). In some groups, parotid saliva was allowed to adsorb first on enamel species to mimic the AEP (Table 3). Adsorption was allowed to proceed for a period of 2 hours at 37° C. with gentle agitation. Enamel specimens were then washed with distilled water and immersed in a demineralization solution, pH 4.5 for 12 days. This solution was used to measure the amount of calcium and phosphate released from enamel.

[4] = all studied concentrations, compared to other native statherin peptides; p<0.05; cited from earlier work
[5] = Inhibition of spontaneous precipitation of supersaturated calcium phosphate solutions (Alizarin Red S, 570 nm); conditions: all test concentrations, compared to a group without any inhibitor; FIG. 4
Protocol: To investigate the ability of the chitosan encapsulated AEP proteins/peptides to prevent crystal growth, microtiter plates were coated with proteins/peptides in a HEPES buffer at RT for 1 h. The wells were washed followed by the addition of a solution containing phosphate (15 mM; pH 7.4), NaCl (150 mM) and CaCl2 (50 mM). The solutions were incubated for 4 h at room temperature, allowing the formation of hydroxyapatite crystals. After this period, the solution was removed, 5% Alizarin Red S (pH 4.2), was added, followed by cerylpyridinium chloride. Crystal production was analyzed spectrophotometrically at 570 nm.

[6] = adsorbed for 2 hrs at 37° C., demineralization solution pH 4.5 for 12 days, n = 10

Row | Compound | Mean Ca Conc. (calcium released from human enamel) [1] | Mean PO4 Conc. (phosphate released from human enamel) [1] | Enamel demineralization protection / mineral loss (in words) [1] | Encapsulation Efficiency [2] [%] | other results
1 | DSpSpEEKFLRVPLSLRKFHEKHHSHRGYR (D[pS][pS]EEKFLRVPLSLRKFHEKHHSHRGYR) [DR9-VPLSL-RR14] | 4.106 ± 2.13^A mM | 3.159 ± 1.85^A mM | did not provide any increased demineralization protection over the control |  | 
2 | RKFHEKHHSHRGYR [RR-14] |  |  |  | 93.1 | 
3 | Histatin 5 |  |  |  | 82.9 | 
4 | DSpSpEEKFLRVPAGLRKFHEKHHSHRGYR (D[pS][pS]EEKFLRVPAGLRKFHEKHHSHRGYR) [DR9-VPAGL-RR14] | 4.755 ± 1.35^A mM | 3.917 ± 0.82^A mM | did not provide any increased demineralization protection over the control |  | 
5 | DSpSpEEKFLRDSpSpEEKFLR (D[pS][pS]EEKFLRD[pS][pS]EEKFLR) [DR9-DR9] | 0.581 ± 0.16^C mM | 0.514 ± 0.18^C mM | lowest mineral loss; also recorded: amplified by DR9-DR9 when compared to single DR9 or statherin |  | 
6 | [F-].[Na+] [NaF] |  |  |  |  | Calcium released from enamel [3, 6]: 0.30 ± 0.13 ^b mM; Phosphate released from enamel [3, 6]: 0.17 ± 0.06 ^b mM; demineralization / acid protection (in words) [3]: better acid protection
7 | DSpSpEEKFLRRKFHEKHHSHRGYR (D[pS][pS]EEKFLRRKFHEKHHSHRGYR) [DR9-RR14] | 3.132 ± 2.46^B mM | 2.282 ± 2.01^B mM | intermediate value among the groups; also recorded: able to maintain the biological function of one of the precursor proteins, statherin |  | 
8 | Bovine Serum Albumin: model protein for chitosan encapsulation |  |  |  | 88.3 | 
9 | DSpSpEEKFLR (D[pS][pS]EEKFLR) [DR9] | 1.455 ± 2.13^B, C mM | 0.849 ± 1.80^B, C mM |  | 75.5 | hydroxyapatite growth inhibition [4]: significant effect; inhibition of calcium phosphate crystal growth [5]: statistically significant inhibition of calcium phosphate crystal growth; demineralization / acid protection (in words) [3]: intermediary level of demineralization protection
10 | DSpSpEEKFLRRIGRFGYGYGPYQPVPEQPLYPQPYQPQYQQYTF (D[pS][pS]EEKFLRRIGRFGYGYGPYQPVPEQPLYPQPYQPQYQQYTF) [Statherin] | 1.117 ± 1.29^B, C mM | 0.681 ± 1.11^B, C mM |  |  | 

— patent publication US20170305984A1, “STATHERIN PEPTIDES” (THE UNIVERSITY OF WESTERN ONTARIO, priority 2014, published 2017)
